Reference: patent US20220062240A1, “METHODS OF TREATING CANCER USING A CLK INHIBITOR” (BioSplice Therapeutics, Inc., priority 2018, published 2022)
pEC50: −log10 of the molar value. Where two headings read alike, the source gives them in different places.

Experiments:
Type in all cases: cell-based
BT-549 = test: CellTiter-Glo Viability Assay, breast cancer; settings: Homo sapiens, BT-549, 96 h
Method: (§1) Fifty-one human cancer cell lines (breast cancer (8 cell lines), colorectal cancer (6 cell lines), haematopoietic & lymphoid tumors (13 cell lines), liver cancer (3 cell lines), lung cancer (4 cell lines), ovarian cancer (4 cell lines), pancreatic cancer (8 cell lines), and prostate cancer (5 cell lines)) were tested to determine the effects of representative compounds of Formulas (I)-(XII) on cellular proliferation, as evaluated using the CellTiter-Glo® Viability Assay.
(§2) For the Cell Viability Assays, cells were plated at 300-3,000 cells/well in 384-well plates in their respective media containing 1% Penicillin-Streptomycin and incubated for four days at 37° C. and 5% CO2. Twenty-eight replicates of DMSO-treated cells served as controls and cells treated with compound were performed in duplicate.
(§3) After incubation, 10 μL of CellTiter-Glo® (Promega) was added to each well allowed to incubate for approximately 12 minutes. This reagent results in cell lysis and generation of a luminescent signal proportional to the amount of ATP present. The amount of ATP is directly proportional to the number of metabolically active, viable cells present in culture. The CellTiter-Glo® Assay generates a luminescent signal, produced by the luciferase reaction (Promega.com).
(§4) After incubation, the luminescence signal was read using an EnVision™ Multilabel Plate Reader (Perkin Elmer). Dose-response curves were generated and EC50 concentration values were calculated using Dotmatics' Studies Software (Bishops Stortford, UK).

CAMA1 = test: CellTiter-Glo Viability Assay, breast cancer; settings: Homo sapiens, CAMA-1, 96 h
Method: as §1, §2, §3, §4

DU4475 = test: CellTiter-Glo Viability Assay, breast cancer; settings: Homo sapiens, DU-4475, 96 h
Method: as §1, §2, §3, §4

HCC1599 = test: CellTiter-Glo Viability Assay, breast cancer; settings: Homo sapiens, HCC1599, 96 h
Method: as §1, §2, §3, §4

MCF7 = test: CellTiter-Glo Viability Assay, breast cancer; settings: Homo sapiens, MCF7, 96 h
Method: as §1, §2, §3, §4

MDA-MB-231-Luc = test: CellTiter-Glo Viability Assay, breast cancer; settings: Homo sapiens, 96 h
Method: as §1, §2, §3, §4

T47D = test: CellTiter-Glo Viability Assay, breast cancer; settings: Homo sapiens, 96 h
Method: as §1, §2, §3, §4

ZR-75-1 = test: CellTiter-Glo Viability Assay, breast cancer; settings: Homo sapiens, ZR-75-1, 96 h
Method: as §1, §2, §3, §4

[1] = system: colorectal cancer (6 cell lines); test: CellTiter-Glo Viability Assay, colorectal cancer; settings: Homo sapiens
Method: as §1, §2, §3, §4

[2] = system: haematopoietic & lymphoid tumors (13 cell lines); test: CellTiter-Glo Viability Assay, haematopoietic & lymphoid tumors; settings: Homo sapiens
Method: as §1, §2, §3, §4

[3] = system: liver cancer (3 cell lines); test: CellTiter-Glo Viability Assay, liver cancer; settings: Homo sapiens
Method: as §1, §2, §3, §4

[4] = system: lung cancer (4 cell lines); test: CellTiter-Glo Viability Assay, lung cancer; settings: Homo sapiens
Method: as §1, §2, §3, §4

[5] = system: ovarian cancer (4 cell lines); test: CellTiter-Glo Viability Assay, ovarian cancer; settings: Homo sapiens
Method: as §1, §2, §3, §4

[6] = system: pancreatic cancer (8 cell lines); test: CellTiter-Glo Viability Assay, pancreatic cancer; settings: Homo sapiens
Method: as §1, §2, §3, §4

[7] = system: prostate cancer (5 cell lines); test: CellTiter-Glo Viability Assay, prostate cancer; settings: Homo sapiens
Method: as §1, §2, §3, §4

SMILES: CN1CCN(c2cc(C(=O)Nc3cc4cc(-c5cnn(C)c5)ccc4cn3)ccn2)CC1 [Compound 12]
- pEC50 (BT-549): 6.64
- pEC50 (CAMA1): 6.46
- pEC50 (DU4475): 6.74
- pEC50 (HCC1599): 6.99
- pEC50 (MCF7): 6.22
- pEC50 (MDA-MB-231-Luc): 6.52
- pEC50 (T47D): 6.37
- pEC50 (ZR-75-1): 6.44
- EC50 ([1]; DLD-1, read-out: Colorectal cancer, EC50 (μM) DLD-1): 0.183 µM
- EC50 ([1]; HCT-116, read-out: Colorectal cancer, EC50 (μM) HCT116): 0.138 µM
- EC50 ([1]; HT-29, read-out: Colorectal cancer, EC50 (μM) HT29): 0.291 µM
- EC50 ([1]; SW48, read-out: Colorectal cancer, EC50 (μM) SW48): 0.09 µM
- EC50 ([1]; SW480, read-out: Colorectal cancer, EC50 (μM) SW480): 0.159 µM
- EC50 ([1]; SW-620, read-out: Colorectal cancer, EC50 (μM) SW620): 0.114 µM
- EC50 ([2]; DND41, read-out: Haematopoietic & Lymphoid tumors, EC50 (μM) DND-41): 0.208 µM
- EC50 ([2]; HL-60, read-out: Haematopoietic & Lymphoid tumors, EC50 (μM) HL-60): 0.518 µM
- EC50 ([2]; JM1, read-out: Haematopoietic & Lymphoid tumors, EC50 (μM) JM1): 0.095 µM
- EC50 ([2]; JeKo-1, read-out: Haematopoietic & Lymphoid tumors, EC50 (μM) JeKo-1): 0.081 µM
- EC50 ([2]; Jurkat, read-out: Haematopoietic & Lymphoid tumors, EC50 (μM) JURKAT, Clone E6-1): 0.412 µM
- EC50 ([2]; Kasumi 1, read-out: Haematopoietic & Lymphoid tumors, EC50 (μM) KASUMI-1): 0.156 µM
- EC50 ([2]; MOLT-4, read-out: Haematopoietic & Lymphoid tumors, EC50 (μM) MOLT-4): 0.302 µM
- EC50 ([2]; MV4-11, read-out: Haematopoietic & Lymphoid tumors, EC50 (μM) MV-4-11): 0.082 µM
- EC50 ([2]; Rec1, read-out: Haematopoietic & Lymphoid tumors, EC50 (μM) REC-1): 0.075 µM
- EC50 ([2]; SU-DHL-4, read-out: Haematopoietic & Lymphoid tumors, EC50 (μM) SUDHL4): 0.335 µM
- EC50 ([2]; TF-1, read-out: Haematopoietic & Lymphoid tumors, EC50 (μM) TF-1): 0.386 µM
- EC50 ([2]; Toledo, read-out: Haematopoietic & Lymphoid tumors, EC50 (μM) TOLEDO): 0.101 µM
- EC50 ([2]; read-out: Haematopoietic & Lymphoid tumors, EC50 (μM) Loucy): 0.155 µM
- pEC50 ([3]; HepG2, read-out: Liver cancer, EC50 HEPG2): 6.51
- pEC50 ([3]; PLC-PRF-5, read-out: Liver cancer, EC50 PLC/PRF/5): 6.33
- pEC50 ([3]; SNU-398, read-out: Liver cancer, EC50 SNU398): 7.21
- EC50 ([4]; A-427, read-out: Lung cancer, EC50 (μM) A427): 0.277 µM
- EC50 ([4]; HCC78, read-out: Lung cancer, EC50 (μM) HCC-78): 0.326 µM
- EC50 ([4]; NCI-H460, read-out: Lung cancer, EC50 (μM) NCI-H460): 0.261 µM
- EC50 ([4]; NCI-H522, read-out: Lung cancer, EC50 (μM) NCI-H522): 0.133 µM
- EC50 ([5]; OV-90, read-out: Ovarian cancer, EC50 (μM) OV-90): 0.456 µM
- EC50 ([5]; OVCAR-3, read-out: Ovarian cancer, EC50 (μM) OVCAR-3): 0.113 µM
- EC50 ([5]; PA-1, read-out: Ovarian cancer, EC50 (μM) PA1): 0.172 µM
- EC50 ([5]; TOV112D, read-out: Ovarian cancer, EC50 (μM) TOV-112D): 0.152 µM
- pEC50 ([6]; BXPC-3, read-out: Pancreatic cancer, EC50 BxPC3): 6.38
- pEC50 ([6]; CAPAN-1, read-out: Pancreatic cancer, EC50 Capan1): 6.46
- pEC50 ([6]; Capan-2, read-out: Pancreatic cancer, EC50 Capan2): 6.38
- pEC50 ([6]; MIA PaCa-2, read-out: Pancreatic cancer, EC50 MIA PaCa-2): 6.88
- pEC50 ([6]; PANC-1, read-out: Pancreatic cancer, EC50 PANC-1): 6.53
- pEC50 ([6]; Panc 05.04, read-out: Pancreatic cancer, EC50 PANC 05.04): 6.47
- pEC50 ([6]; read-out: Pancreatic cancer, EC50 UPAFII): 6.82
- pEC50 ([7]; 22Rv1, read-out: Prostate cancer EC50 22Rv1): 6.72
- pEC50 ([7]; DU-145, read-out: Prostate cancer EC50 Du-145): 6.42
- pEC50 ([7]; LNCaP-Clone-FGC, read-out: Prostate cancer EC50 LNCap clone FGC): 6.48
- pEC50 ([7]; PC-3, read-out: Prostate cancer EC50 PC3): 6.63
- pEC50 ([7]; VCaP, read-out: Prostate cancer EC50 VCaP (Sigma)): 6.34
